Laboratory results from US20250145715A1, “B7-H3 TARGETING FUSION PROTEINS AND METHODS OF USE THEREOF” (GT Biopharma, Inc., priority 2021, published 2025).

Experiments:
[1] = test system: prostate cancer cells; assay: Cell index over time, killing of prostate cancer cells; type: cell-based, human
Excerpt: FIG. 21 is a graph illustrating cell index over time.

[2] = test system: LNCaP prostate cancer cells; assay: NK cell CD107a / IFNγ flow cytometry against LNCaP; type: cell-based, human; conditions: normal donor and prostate cancer patient NK cells, vs controls
Excerpt: (§1) FIG. 15A is a graph showing pooled analysis of proportion of NK cells from healthy donors or prostate cancer patients expressing CD107a+ (top) or IFNγ (bottom) against C4-2 targets (N=9 for healthy donors, N=3 for patients). FIG. 15B is a graph showing pooled analysis of proportion of NK cells from healthy donors or prostate cancer patients expressing CD107a+ (top) or IFNγ (bottom) against DU145 targets (N=9 for healthy donors, N=3 for patients). FIG. 15C is a graph showing pooled analysis of proportion of NK cells from healthy donors or prostate cancer patients expressing CD107a+ (top) or IFNγ (bottom) against LNCaP targets (N=9 for healthy donors, N=3 for patients). FIG. 15D is a graph showing pooled analysis of proportion of NK cells from healthy donors or prostate cancer patients expressing CD107a+ (top) or IFNγ (bottom) against PC3 targets (N=9 for healthy donors, N=3 for patients). * p<0.05, ** p<0.01, *** p<0.001, and **** p<0.0001.
(§2) ADCC was measured in a flow cytometry assay by evaluating degranulation via CD107a (lysosomal-associated membrane protein LAMP-1) and intracellular IFNγ production. Upon thawing, normal donor and patient-derived PBMCs or ascites cells were rested overnight (37° C., 5% CO2) in RPMI 1640 media supplemented with 10% fetal calf serum (RPMI-10). […] Samples were washed and evaluated in an LSRII flow cytometer (BD Biosciences, San Jose, CA, USA). […]

[3] = test system: NK cells (CD56+CD3−); assay: NK cell proliferation in PBMCs, CellTrace Violet dilution; type: cell-based, human
Procedure: FIGS. 2A-2H illustrates that cam1615B7-H3 TriKE induces potent, and specific, natural killer (NK) cell proliferation. Peripheral blood mononuclear cells (PBMCs) were CellTrace Violet labeled and incubated for seven days at 5 nM equimolar concentrations of rhIL-15 or cam1615B7-H3 TriKE. On day 7, the cells were harvested and stained for flow cytometric evaluation. […] FIG. 2B is a graph illustrating pooled data showing the overall proportion of NK cells that proliferated. FIG. 2C is a graph illustrating pooled data showing the proportion of NK cells that highly proliferated (measured as proliferation beyond three divisions). FIG. 2D is a graph illustrating pooled data showing NK cell counts in the cultures (N=9). FIG. 2E is a representative histogram showing T cell (CD56− CD3+) proliferation. FIG. 2F is a graph illustrating pooled data showing the overall proportion of T cells proliferated. FIG. 2G is a graph illustrating pooled data showing the proportion of T cells highly proliferated. […]
The wild-type IL-15 moiety in the cam1615B7-H3 TriKE was designed to induce targeted delivery of a proliferative signal to NK cells. […] At the end of the seven days, cells were harvested and proliferation was evaluated by gating on CD56+CD3− cells. […] Since IL-15 acts on both NK cells and T cells, specificity was evaluated next by gating on T cells (CD56-CD3+). […]

[4] = test system: DU145 prostate cancer cells; assay: NK cell CD107a / IFNγ flow cytometry against DU145; type: cell-based, human; conditions: normal donor and prostate cancer patient NK cells, vs controls
Excerpt: as §1, §2

[5] = Toxicity assessment, weights of NSG mice engrafted with NK cells; type: in vivo; conditions: irradiated NSG mice, 1 million NK cells, treated three weeks, weights tracked 90 days
Procedure: As illustrated in FIGS. 32A-32F, cam1615B7-H3 TriKE mediates anti-tumor activity in vivo. Determination of in vivo activity is a critical step for translation. However, prior to evaluating the ability of the cam1615B7-H3 TriKE to induce function against tumor the potential for toxicity was assessed. To do this NSG mice were irradiated, engrafted with 1 million NK cells, treated with nothing, IL-15, or cam1615B7-H3 for three weeks, and weights were tracked over the course of 90 days post initial treatment. […] This is not surprising given the low toxicity profile of IL-15 and the safety profile of B7-H3. […] In this model, human NK cells and human high grade serous MA-148-luc cells are injected into the peritoneal cavity of NSG mice.

| Substance | time to killing of prostate cancer cells after initiation of treatment [1] | NK cell IFNγ production against LNCaP [2] | NK cell degranulation (CD107a) against LNCaP [2] | overall NK cell proliferation ([3]; PBMCs, 7 days, 5 nM equimolar) | NK cell proliferation (3 or more rounds of division) vs IL-15 alone ([3]; compared to IL-15 alone) | NK cell IFNγ production against DU145 [4] | NK cell degranulation (CD107a) against DU145 [4] | body weight vs controls [5] |
| --- | --- | --- | --- | --- | --- | --- | --- | --- |
| B7-H3 TriKE: camelid nanobodies targeting CD16 and B7-H3 joined by IL-15 and two linkers; sequence table equates the name with cam1615B7-H3 | within a couple of hours | – | – | – | – | – | – | – |
| cam1615B7-H3: second-generation TriKE: humanized camelid anti-CD16 VHH, human wild-type IL-15, anti-B7-H3 mAb 376.96 scFv; SEQ ID NO:1 | – | enhanced | enhanced | overall increase in proliferation that was similar in amplitude to that induced by rhIL-15 | more potent at inducing NK cell proliferation | enhanced | enhanced | no significant differences |
